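How tested: cells in 96-well plates exposed to compound for 48 hours at five concentrations. GI50 marks 50% less growth. TGI is the concentration that stops growth completely.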

Results on 14 molecules are retold here after PubChem BioAssay (NCI).

Test systems include 786-0 renal; ACHN renal; HS 578T breast; IGROV1 ovarian; KM12 colon; MCF7 breast; SF-295 CNS; SNB-75 CNS; SW-620 colon; M14 melanoma.
What all share (test): growth of human tumour cells (NCI), 48 h

As to `CN(C)/[N+]([O-])=N/Oc1cc(Nc2ccc(C(=O)O)cc2)c([N+](=O)[O-])cc1[N+](=O)[O-]`, the GI50 in the assay with 786-0 renal is 22.2 µM; with ACHN renal, 26.7 µM; in the assay with HS 578T breast, 21.7 µM; with IGROV1 ovarian, 14.9 µM; with KM12 colon, 14.6 µM; with MCF7 breast, 25.2 µM. The GI50 in the assay on SF-295 CNS was 16.9 µM; in the assay with SNB-75 CNS it was 25.7 µM; in the assay on SW-620 colon it was 45.4 µM. Moreover, the TGI in the assay on 786-0 renal was determined as 55.3 µM; with ACHN renal, 62.4 µM; with HS 578T breast it was 57.3 µM; in the assay with IGROV1 ovarian it was 34.4 µM; in the assay on KM12 colon, 30.8 µM; in the assay with MCF7 breast, 69.7 µM. The TGI was 34 µM with SF-295 CNS, 52.1 µM with SNB-75 CNS and more than 100 µM with SW-620 colon.

As to `CCN(CCCl)CCNc1c2ccccc2nc2ccc(OC)cc12`, the TGI in the assay with 786-0 renal stood at 1.84 µM; in the assay with ACHN renal it was 1.66 µM; with IGROV1 ovarian it was 2.86 µM; in the assay with KM12 colon, 3.11 µM; in the assay with M14 melanoma, 2.45 µM; in the assay on MCF7 breast, 3.55 µM. Also, the TGI worked out at 4 µM in the assay with SF-295 CNS, 3.27 µM in the assay on SNB-75 CNS and 2.04 µM in the assay with SW-620 colon.

For `CCCCOC(=O)N[C@H]1CCc2cc(OC)c(OC)c(OC)c2-c2ccc(SC)c(=O)cc21`, the TGI with 786-0 renal is 25.5 µM; with ACHN renal it was 13.1 µM; in the assay with IGROV1 ovarian, 92.5 µM; in the assay on KM12 colon, less than 0.0464 µM; with M14 melanoma, 15.6 µM; in the assay with MCF7 breast, 26 µM. Also, the TGI in the assay with SF-295 CNS was less than 0.0361 µM; in the assay on SNB-75 CNS it was 2.99 µM; with SW-620 colon, 79 µM.

Turning to `N#Cc1c2ccccc2c2nnc3cc(Cl)c(Cl)cc3n12`, the GI50 in the assay with 786-0 renal is more than 100 µM; in the assay with ACHN renal, 19.9 µM; with IGROV1 ovarian it was 44.5 µM; in the assay with KM12 colon, more than 100 µM; with M14 melanoma, more than 100 µM; in the assay with MCF7 breast, 27.5 µM. Moreover, the values for the GI50 in the assay with SF-295 CNS, in the assay on SNB-75 CNS and in the assay with SW-620 colon were 93.7 µM, 71.7 µM and more than 100 µM, respectively. For the same molecule, the TGI is more than 100 µM in the assay on 786-0 renal; 52.8 µM in the assay on ACHN renal; more than 100 µM with IGROV1 ovarian; more than 100 µM in the assay on KM12 colon; more than 100 µM in the assay with M14 melanoma; 90.3 µM in the assay with MCF7 breast. Moreover, the TGI in the assay with SF-295 CNS, with SNB-75 CNS and in the assay with SW-620 colon was more than 100 µM each time.

In the case of `COc1ccc(C2CC(c3cc(OC)c(OC)c(OC)c3)=NN2)cc1` (stereo not given), the GI50 in the assay on 786-0 renal was 20.7 µM; in the assay with ACHN renal it was 26.2 µM; in the assay with HS 578T breast, 14.4 µM; in the assay on IGROV1 ovarian it was 5.98 µM; in the assay with KM12 colon it was 4.49 µM; with M14 melanoma, 13.3 µM. In addition, the GI50 in the assay on MCF7 breast is 2.78 µM; with SF-295 CNS it was 4.99 µM; in the assay with SW-620 colon, 4.58 µM. Also, the TGI with 786-0 renal was more than 100 µM; in the assay on ACHN renal, more than 100 µM; with HS 578T breast, 98.3 µM; in the assay with IGROV1 ovarian it was more than 100 µM; with KM12 colon, more than 100 µM; with M14 melanoma it was more than 100 µM. The TGI in the assay on MCF7 breast is 27.1 µM; in the assay on SF-295 CNS, more than 100 µM; with SW-620 colon it was more than 100 µM.

Turning to `CCCNc1nc(-c2ccc(OC)cc2)nc2ccccc12`, the GI50 is 13.7 µM with 786-0 renal; 15.8 µM in the assay with ACHN renal; 17.9 µM in the assay on HS 578T breast; 24 µM with IGROV1 ovarian; 14.6 µM with KM12 colon; 10.6 µM in the assay on M14 melanoma. The GI50 in the assay with MCF7 breast was 19.5 µM; in the assay with SF-295 CNS it was 15.7 µM. Further, the TGI is 33 µM with 786-0 renal; 33.3 µM with ACHN renal; 42.9 µM in the assay with HS 578T breast; more than 100 µM with IGROV1 ovarian; 30.8 µM in the assay on KM12 colon; 24.7 µM in the assay on M14 melanoma. Besides, the TGI is more than 100 µM with MCF7 breast and 32.2 µM in the assay with SF-295 CNS.

As for `N#C/C(=C/N1CCN(C(=O)c2ccco2)C1=S)C(N)=O`, the GI50 in the assay on 786-0 renal is 18 µM; in the assay with ACHN renal, 11.8 µM; in the assay on IGROV1 ovarian, 24 µM; with KM12 colon it was 7.51 µM; in the assay on M14 melanoma, 16.5 µM; in the assay on MCF7 breast, 1.71 µM. Further, the GI50 in the assay on SF-295 CNS was 32.1 µM; in the assay on SNB-75 CNS, more than 100 µM; with SW-620 colon, 22.1 µM. Moreover, the TGI in the assay with 786-0 renal was 46.9 µM; with ACHN renal, 38.8 µM; in the assay on IGROV1 ovarian, 86.8 µM; in the assay with KM12 colon it was 98.2 µM; with M14 melanoma, 43.2 µM; in the assay on MCF7 breast it was 21 µM. In addition, the TGI in the assay on SF-295 CNS is more than 100 µM; in the assay with SNB-75 CNS, more than 100 µM; in the assay with SW-620 colon it was 81.7 µM.

Turning to `Cc1cc(S(N)(=O)=O)c(S/C(=N\NS(=O)(=O)c2ccc(Cl)cc2)c2ccc(Cl)cc2)cc1Cl`, the GI50 in the assay with 786-0 renal was more than 100 µM; in the assay with ACHN renal it was 38.6 µM; in the assay with HS 578T breast, 79.7 µM; with IGROV1 ovarian it was more than 100 µM; in the assay with KM12 colon it was 70.6 µM; in the assay on M14 melanoma, more than 100 µM. Also, the GI50 in the assay on MCF7 breast, in the assay on SF-295 CNS and in the assay on SW-620 colon was more than 100 µM each time. Further, the TGI with 786-0 renal, in the assay on ACHN renal, with HS 578T breast, in the assay with IGROV1 ovarian, in the assay on KM12 colon and in the assay on M14 melanoma was more than 100 µM in each case. Besides, the TGI in the assay with MCF7 breast, with SF-295 CNS and with SW-620 colon was more than 100 µM throughout.

On to `O=C(Nc1ccccc1Cl)c1ccc(NC2=C(Cl)C(=O)N(Cc3ccccc3)C2=O)cc1`, for which the GI50 with 786-0 renal is 24.8 µM; in the assay with ACHN renal it was 37.6 µM; with HS 578T breast, 32.7 µM; in the assay with IGROV1 ovarian, 46.4 µM; with KM12 colon, 32.7 µM; in the assay on M14 melanoma it was 79.4 µM. For the same molecule, the GI50 was 17.2 µM in the assay with MCF7 breast, 26.6 µM with SF-295 CNS and 25.4 µM in the assay on SW-620 colon. For the same molecule, the TGI in the assay on 786-0 renal is 57.3 µM; in the assay with ACHN renal, more than 100 µM; in the assay on HS 578T breast it was 69.3 µM; in the assay on IGROV1 ovarian, more than 100 µM; with KM12 colon, more than 100 µM; in the assay with M14 melanoma it was more than 100 µM. The TGI was 36 µM with MCF7 breast, more than 100 µM with SF-295 CNS and 58.1 µM in the assay with SW-620 colon.

In the case of `NS(=O)(=O)c1ccc(-n2nc(-c3ccc(Cl)cc3)cc2C2=CC(=O)C=CC2=O)cc1`, the GI50 was 19.8 µM in the assay on 786-0 renal; 20.8 µM in the assay with ACHN renal; 23.8 µM in the assay on HS 578T breast; 39.6 µM in the assay on IGROV1 ovarian; 16 µM with KM12 colon; 23 µM in the assay on M14 melanoma. Further, the GI50 in the assay on MCF7 breast was 21.1 µM; with SF-295 CNS, 25.1 µM; in the assay on SW-620 colon it was 19.8 µM. For the same molecule, the TGI with 786-0 renal is 36 µM; in the assay with ACHN renal, 35.1 µM; with HS 578T breast, 72.6 µM; in the assay with IGROV1 ovarian, more than 100 µM; in the assay with KM12 colon, 36.1 µM; in the assay on M14 melanoma, 42.8 µM. Besides, the TGI with MCF7 breast amounted to 69.9 µM; with SF-295 CNS, 63.2 µM; in the assay with SW-620 colon it was 48.3 µM.

Take `Cc1ccc(/C=C2\CCOC2=O)cc1`: the GI50 in the assay on 786-0 renal was more than 100 µM; in the assay on ACHN renal, more than 100 µM; with IGROV1 ovarian, 82.5 µM; in the assay with KM12 colon, more than 100 µM; in the assay on M14 melanoma, more than 100 µM; in the assay with MCF7 breast it was more than 100 µM. The GI50 with SNB-75 CNS and in the assay on SW-620 colon was more than 100 µM each time. The TGI in the assay on 786-0 renal, in the assay on ACHN renal, in the assay with IGROV1 ovarian, with KM12 colon, with M14 melanoma and in the assay with MCF7 breast was more than 100 µM in each case. Besides, the TGI in the assay on SNB-75 CNS and with SW-620 colon was more than 100 µM throughout.

With `COc1ccc2c(CNCCCCO)cc3cc4c(cc3c2c1)OCO4`, the GI50 is 1.63 µM with 786-0 renal; 0.891 µM in the assay with ACHN renal; 0.929 µM in the assay on HS 578T breast; 0.407 µM with IGROV1 ovarian; 1.83 µM with KM12 colon; 2.07 µM with M14 melanoma. Besides, the GI50 is 0.624 µM in the assay on SF-295 CNS, 2.02 µM with SNB-75 CNS and 0.228 µM with SW-620 colon. The TGI in the assay with 786-0 renal was more than 32.2 µM; with ACHN renal it was 3.7 µM; in the assay on HS 578T breast, 4.1 µM; with IGROV1 ovarian it was 4.75 µM; with KM12 colon it was 7.33 µM; in the assay with M14 melanoma, 4.68 µM. The TGI with SF-295 CNS stood at 4.68 µM; in the assay on SNB-75 CNS, 6.67 µM; in the assay on SW-620 colon, 2.35 µM.

Turning to `Cc1cc2c(=O)cc(-c3ccc(Cl)cc3)oc2c(C(=O)O)c1C`, the TGI in the assay on 786-0 renal, with ACHN renal, in the assay with IGROV1 ovarian, in the assay with KM12 colon, in the assay with M14 melanoma and with SF-295 CNS was more than 100 µM throughout. For the same molecule, the TGI in the assay with SNB-75 CNS and in the assay with SW-620 colon was more than 100 µM each time.

As to `COc1nc2c(nc(N)n2C2OC(CO)C(O)C(O)C2O)c(=O)n1C` (stereo not given), the TGI with 786-0 renal, in the assay on ACHN renal, with IGROV1 ovarian, in the assay with KM12 colon, in the assay with M14 melanoma and in the assay with SF-295 CNS was more than 100 µM throughout. For the same molecule, the TGI with SNB-75 CNS and in the assay on SW-620 colon was more than 100 µM each time.
